SMILES strings stand for the structures. Structures can show the parent of a compound that is named as a salt.

By IC50 is commonly meant the concentration needed to halve the response being measured. High values mean a need for much substance, low ones inhibition by little substance.

catalytic domain of human PARP14, sequence (Q460N5 1611-1801): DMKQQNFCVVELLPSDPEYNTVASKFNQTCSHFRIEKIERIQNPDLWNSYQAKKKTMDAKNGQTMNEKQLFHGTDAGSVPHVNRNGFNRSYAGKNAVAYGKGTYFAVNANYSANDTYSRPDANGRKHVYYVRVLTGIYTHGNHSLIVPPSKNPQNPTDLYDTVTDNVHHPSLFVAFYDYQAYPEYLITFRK

The target of the assay is catalytic domain of human PARP14 (Homo sapiens (Human), UniProt Q460N5). Put plainly: Enzymatic assay for inhibition of PARP14 (DELFIA, auto-modification with biotin-NAD). To be noted: auto-modification of PARP14 by biotin-NAD, 50 nM PARP14, 3 μM biotin-NAD. It counts as biochemical. An outline of the steps:
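His-TEV-tagged PARP14 catalytic domain (50 nM) preincubated with compound 30 min at 25 °C, then auto-modified with 3 μM biotin-NAD for 3 h at 25 °C in HEPES pH 8 buffer with DTT. IC50 from 4-parameter fit, rucaparib and DMSO as controls.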
As for `Cc1cccc2c(=O)[nH]c(CSC3CCN(Cc4ccc5c(c4)OCCN5C)CC3)nc12` [Example 158, 8-Methyl-2-(((1-((4-methyl-3,4-dihydro-2H-benzo[b][1,4]oxazin-7-yl)methyl)piperidin-4-yl)thio)methyl)quinazolin-4(3H)-one trifluoroacetate], the IC50 is 1000 to 10000 nM. Then `Cc1cccc2c(=O)[nH]c(CSC3CCN(C[C@H](O)CO)CC3)nc12` [Example 159, (S)-2-(((1-(2,3-Dihydroxypropyl)piperidin-4-yl)thio)methyl)-8-methyl quinazolin-4(3H)-one Trifluoroacetate], with 1000 to 10000 nM; and `Cc1cccc2c(=O)[nH]c(CSC3CCN(C[C@@H](O)CO)CC3)nc12` [Example 160, (R)-2-(((1-(2,3-Dihydroxypropyl)piperidin-4-yl)thio)methyl)-8-methyl quinazolin-4(3H)-one Trifluoroacetate], with 1000 to 10000 nM; and `Cc1cccc2c(=O)[nH]c(CSC3CCN(C[C@@H]4CCCN4)CC3)nc12` [Example 161, (S)-8-Methyl-2-(((1-(pyrrolidin-2-ylmethyl)piperidin-4-yl)thio)methyl) quinazolin-4(3H)-one Hydrochloride], with 1000 to 10000 nM. The value for `Cc1cccc2c(=O)[nH]c(CSC3CCN(CCO)CC3)nc12` [Example 162, 2-(((1-(2-Hydroxyethyl)piperidin-4-yl)thio)methyl)-8-methylquinazolin-4(3H)-one] was less than 1000 nM; that for `Cc1cccc2c(=O)[nH]c(CSC3CCN(CCN)CC3)nc12` [Example 163, 2-(((1-(2-Aminoethyl)piperidin-4-yl)thio)methyl)-8-methylquinazolin-4(3H)-one dihydrochloride] was 1000 to 10000 nM; that for `Cc1cccc2c(=O)[nH]c(CSC3CCN(CCNC(=O)c4ccccn4)CC3)nc12` [Example 164, N-(2-(4-(((8-Methyl-4-oxo-3,4-dihydroquinazolin-2-yl)methyl)thio)piperidin-1-yl)ethyl)picolinamide] was 1000 to 10000 nM. The value for `Cc1cccc2c(=O)[nH]c(CSC3CCN(CCCN)CC3)nc12` [Example 165, 2-(((1-(3-Aminopropyl)piperidin-4-yl)thio)methyl)-8-methylquinazolin-4(3H)-one dihydrochloride] was less than 1000 nM; that for `Cc1cccc2c(=O)[nH]c(CSC3CCN(C(=O)CN)CC3)nc12` [Example 166, 2-(((1-Glycylpiperidin-4-yl)thio)methyl)-8-methylquinazolin-4(3H)-one Hydrochloride] was less than 1000 nM. With `Cc1cccc2c(=O)[nH]c(CSC3CCN(C(=O)CCN)CC3)nc12` [Example 167, 2-(((1-(3-Aminopropanoyl)piperidin-4-yl)thio)methyl)-8-methylquinazolin-4(3H)-one Hydrochloride], the concentration for half-maximal inhibition (IC50) is 1000 to 10000 nM.

As for `Cc1cccc2c(=O)[nH]c(CSC3CCN(C(=O)CCN(C)C)CC3)nc12` [Example 168, 2-(((1-(3-(Dimethylamino)propanoyl)piperidin-4-yl)thio)methyl)-8-methyl quinazolin-4(3H)-one], the IC50 was in the range of 1000 to 10000 nM. Then `Cc1cccc2c(=O)[nH]c(CSC3CCN(C(=O)[C@H](N)CCCNC(=N)N)CC3)nc12` [Example 169, (R)-1-(4-Amino-5-(4-(((8-methyl-4-oxo-3,4-dihydroquinazolin-2-yl)methyl)thio)piperidin-1-yl)-5-oxopentyl)guanidine Trihydrochloride], with less than 1000 nM; and `Cc1cccc2c(=O)[nH]c(CSC3CCN(C(=O)[C@@H](N)CCCNC(=N)N)CC3)nc12` [Example 170, (S)-1-(4-Amino-5-(4-(((8-methyl-4-oxo-3,4-dihydroquinazolin-2-yl)methyl)thio)piperidin-1-yl)-5-oxopentyl)guanidine Trihydrochloride], with less than 1000 nM; and `Cc1cccc2c(=O)[nH]c(CSC3CCN(C(=O)[C@@H](N)CCCCN)CC3)nc12` [Example 171, 2-(((1-(L-Lysyl)piperidin-4-yl)thio)methyl)-8-methylquinazolin-4(3H)-one Dihydrochloride], with less than 1000 nM. The compound `Cc1cccc2c(=O)[nH]c(CSC3CCN(C(=O)[C@H](N)CCCCN)CC3)nc12` [Example 172, 2-(((1-(D-Lysyl)piperidin-4-yl)thio)methyl)-8-methylquinazolin-4(3H)-one Dihydrochloride] gave an IC50 of less than 1000 nM. The value for `Cc1cccc2c(=O)[nH]c(CSC3CCN(C(=O)CCc4ccccn4)CC3)nc12` [Example 173, 8-Methyl-2-(((1-(3-(pyridin-2-yl)propanoyl)piperidin-4-yl)thio)methyl) quinazolin-4(3H)-one] was 1000 to 10000 nM. The value for `Cc1cccc2c(=O)[nH]c(CSC3CCN(S(C)(=O)=O)CC3)nc12` [Example 174, 8-Methyl-2-(((1-(methylsulfonyl)piperidin-4-yl)thio)methyl)quinazolin-4(3H)-one] was less than 1000 nM. Then `Cc1cccc2c(=O)[nH]c(CSC3CCN(S(=O)(=O)c4ccccn4)CC3)nc12` [Example 175, 8-Methyl-2-(((1-(pyridin-2-ylsulfonyl)piperidin-4-yl)thio)methyl)quinazolin-4(3H)-one], with 1000 to 10000 nM. In turn, `O=c1[nH]c(CSC2CCNCC2)nc2cc(NC3CCCC3)cc(F)c12` [Example 176, 7-(Cyclopentylamino)-5-fluoro-2-((piperidin-4-ylthio)methyl)quinazolin-4(3H)-one Hydrochloride] yielded an IC50 of less than 1000 nM. The value for `O=c1[nH]c(CSC2CCNCC2)nc2cc(NC3CCC3)cc(F)c12` [Example 177, 7-(Cyclobutylamino)-5-fluoro-2-((piperidin-4-ylthio)methyl)quinazolin-4(3H)-one Hydrochloride] was less than 1000 nM; that for `CC(=O)NC[C@H]1CC[C@H](SCc2nc3c(C)cccc3c(=O)[nH]2)CC1` [Example 178, N-(((trans)-4-(((8-methyl-4-oxo-3,4-dihydroquinazolin-2-yl)methyl)thio)cyclohexyl)methyl)acetamide] was 1000 to 10000 nM. Then `O=c1[nH]c(CSC2CCNCC2)nc2cc(NC3CCCC3)ccc12` [Example 179, 7-(cyclopentylamino)-2-((piperidin-4-ylthio)methyl)quinazolin-4(3H)-one], with less than 1000 nM; and `O=c1[nH]c(CS[C@H]2CC[C@H](CO)CC2)nc2cc(NC3CCCC3)ccc12` [Example 180, 7-(cyclopentylamino)-2-((((1R,4R)-4-(hydroxymethyl)cyclohexyl)thio)methyl)quinazolin-4(3H)-one], with less than 1000 nM. In turn, `Cc1cccc2c(=O)[nH]c(CS[C@H]3CC[C@H](CCN)CC3)nc12` [Example 181, 2-((((trans)-4-(2-aminoethyl)cyclohexyl)thio)methyl)-8-methylquinazolin-4(3H)-one] showed an IC50 of less than 1000 nM.

Compound `Cc1cccc2c(=O)[nH]c(CSC3CC(CN)C3)nc12` (stereo not drawn) [Example 182, 2-(((3-(aminomethyl)cyclobutyl)thio)methyl)-8-methylquinazolin-4(3H)-one] displayed an IC50 of 1000 to 10000 nM. The value for `O=c1[nH]c(CSC2CCOCC2)nc2cc(NC3CCCC3)cc(F)c12` [Example 184, 7-(cyclopentylamino)-5-fluoro-2-(((tetrahydro-2H-pyran-4-yl)thio)methyl)quinazolin-4(3H)-one] was less than 1000 nM.

As for `O=c1[nH]c(CS[C@H]2CC[C@H](O)CC2)nc2cc(NC3CCCC3)cc(F)c12` [Example 185, 7-(cyclopentylamino)-5-fluoro-2-((((1R,4R)-4-hydroxycyclohexyl)thio)methyl)quinazolin-4(3H)-one], the IC50 was less than 1000 nM. The value for `O=c1[nH]c(CSC2CCOCC2)nc2nc(NC3CCCC3)ccc12` [Example 186, 7-(cyclopentylamino)-2-(((tetrahydro-2H-pyran-4-yl)thio)methyl)pyrido[2,3-d]pyrimidin-4(3H)-one] was less than 1000 nM; that for `O=c1[nH]c(CSC2CCOCC2)nc2cc(N[C@H]3CCCOC3)ccc12` [Example 187, (S)-7-((tetrahydro-2H-pyran-3-yl)amino)-2-(((tetrahydro-2H-pyran-4-yl)thio)methyl)quinazolin-4(3H)-one] was less than 1000 nM; that for `O=c1[nH]c(CSC2CCOCC2)nc2cc(NC3CCCC3)cnc12` [Example 188, 7-(cyclopentylamino)-2-(((tetrahydro-2H-pyran-4-yl)thio)methyl)pyrido[3,2-d]pyrimidin-4(3H)-one] was greater than 10000 nM. The value for `O=c1[nH]c(CSC2CCOCC2)nc2cc(NC3CCCC3)ncc12` [Example 189, 7-(cyclopentylamino)-2-(((tetrahydro-2H-pyran-4-yl)thio)methyl)pyrido[4,3-d]pyrimidin-4(3H)-one] was 1000 to 10000 nM. The value for `O=c1[nH]c(CSC2CCCNCC2)nc2cc(NC3CCCC3)ccc12` (stereo not drawn) [Example 190, 2-((azepan-4-ylthio)methyl)-7-(cyclopentylamino)quinazolin-4(3H)-one] was less than 1000 nM; that for `Cc1cccc2c(=O)[nH]c(CSC3CCC(CN)C3)nc12` (stereo not drawn) [Example 191, 2-(((3-(aminomethyl)cyclopentyl)thio)methyl)-8-methylquinazolin-4(3H)-one] was 1000 to 10000 nM; that for `Cc1cc(Nc2ccc3c(=O)[nH]c(CSC4CCOCC4)nc3c2)on1` [Example 192, 7-((3-methylisoxazol-5-yl)amino)-2-(((tetrahydro-2H-pyran-4-yl)thio)methyl)quinazolin-4(3H)-one] was less than 1000 nM.

For `CS(=O)(=O)N1CCC[C@@H](Nc2ccc3c(=O)[nH]c(CSC4CCOCC4)nc3c2)C1` [Example 193, (R)-7-((1-(methylsulfonyl)piperidin-3-yl)amino)-2-(((tetrahydro-2H-pyran-4-yl)thio)methyl)quinazolin-4(3H)-one], the IC50 is less than 1000 nM.

Regarding `O=c1[nH]c(CS[C@H]2CC[C@H](O)CC2)nc2cc(NC3CCC3)ccc12` [Example 194, 7-(cyclobutylamino)-2-((((1R,4R)-4-hydroxycyclohexyl)thio)methyl)quinazolin-4(3H)-one], the IC50 was less than 1000 nM.
